We go through four molecules from patent US20080194483A1, “GLP-1 (9-36) methods and compositions” (priority 2003, published 2008).

Where no end group is shown, it is not given here.

Series [1] deals with hepatocytes. The series is classed as cell-based. Here is the method: An experiment similar to that described in Example 1 was performed, using hepatocytes rather than endothelial cells.
The test system of series [2] is bovine aortic endothelial cells (BAECs). Kind of series: Hyperglycemia-induced intracellular ROS (CM-H2DCFDA) in cultured vascular endothelial cells. The series is classed as cell-based. On the procedure:
Cell culture conditions. For reactive oxygen species (RO) measurement, bovine aortic endothelial cells (BAECs, passage 4-10) were plated in 96 well plates at 100,000 cells/well in Eagle's MEM containing 10% FBS, essential and nonessential amino acids, and antibiotics. Cells were incubated with either 5 mM glucose, 30 mM glucose, 30 mM glucose plus 10 nM GLP-1 (7-36), 30 mM glucose plus 10 nM GLP-1 (7-36), 30 mM glucose plus 10 nM GLP-1 (7-36) plus 10 μM pyrrolidide (a DPP IV inhibitor), 30 mM glucose plus 10 nM GLP-1 (7-36) plus 10 μM pyrrolidide and 100 μM phosphoramidon (a neutral endopeptidase 24.11 inhibitor), and 30 mM glucose plus GLP-1 (9-36) plus 10 nM exendin 9-39, a blocker of the GLP-1 (7-36) receptor. The pyrrolidide, phosphoramidon, and exendin 9-39 were each added to the cells four hours before the addition of the peptides. The ROS measurements were performed 24 hrs later.
Intracellular reactive oxygen species measurements. The intracellular formation of reactive oxygen species was detected using the fluorescent probe CM-H2DCFDA (Molecular Probes). Cells (1×10^5 ml^−1) were loaded with 10 μM CM-H2DCFDDA, incubated for 45 min at 37° C., and analysed in an HTS 7000 Bio Assay Fluorescent Plate Reader (Perkin Elmer) using the HTSoft program. ROS production was determined from an H2O2 standard curve (10-200 nmol ml^−1).

The test system of series [3] is human aortic endothelial cells (HAEC). Briefly: Nutrient-induced ROS (CM-H2DCFDA) in human aortic endothelial cells. The series is classed as cell-based. Here is the method: Cell Culture conditions. Confluent HAECs (passage 1-6) were maintained in EGM2 media containing 0.4% FBS plus growth factor additives. Cells were incubated for varying times with either 5 mM glucose, 12 mM glucose, or 5 mM glucose plus 800 μM oleic acid and 1 mM albumin. In other experiments, cells were incubated with 5 mM glucose, 12 mM glucose, or 5 mM glucose plus 800 μM oleic acid and 1 mM albumin, alone, or with either 100 pM GLP-1 (7-36 NH2), GLP-1 (7-36 NH2)+ the DPPIV inhibitor H-lys(4-nito-Z)-pyrrolidide and the neutral endopeptidase inhibitor phosphoramidon, GLP-1 (9-36 NH2), GLP-1 (9-36 NH2) plus the GLP-1 receptor blocker […], and with GLP-1 (9-36 NH2) with 100× GLP-1 (7-36 NH2) and both DPPIV and NEP inhibitors. Cells were pre incubated for four hrs in cycloheximide (5 ug/ml). In experiments using clotrimazole cells were preincubated for 2.5 hrs in serum free media. Reactive oxygen species quantification. Cells were plated in 96-well cell culture plates. Intracellular reactive oxygen species were detected using the fluorescent probe CM-H2DCFDA (Molecular Probes). Cells were loaded with 10 μM CM-H2DCFDA, incubated for 45 min at 37° C., and analyzed with an HTS 7000 Bio Assay Fluorescent Plate Reader (Perkin Elmer) using the HTSoft program.

Series [4] concerns endothelial nitric oxide synthase (eNOS). Briefly: eNOS activity ([3H]L-arginine to [3H]L-citrulline) in cultured vascular endothelial cells. The series is classed as cell-based, bovine. The note with it: BAECs. On the procedure:
Cell-culture conditions. For measurement of endothelial nitric oxide activity (eNOS), bovine aortic endothelial cells (BAECs, passage 4-10) were plated in 24 well plates at 200,000 cells /well in Eagle's MEM containing 10% FBS, essential and nonessential amino acids, and antibiotics. Cells were incubated with either 5 mM glucose, 30 mM glucose, 30 mM glucose plus 10 nM GLP-1 (7-36), 30 mM glucose plus 10 nM GLP-1 (7-36) plus 10 μM pyrrolidide (a DPP IV inhibitor) (not shown in FIG. 2), 30 mM glucose plus 10 nM GLP-1 (7-36) plus 10 μM pyrrolidide and 100 μM phosphoramidon (a neutral endopeptidase 24.11 inhibitor), 30 mM glucose+GLP-1 (9-36), and 30 mM glucose plus GLP-1 (9-36) plus 10 nM exendin 9-39, a blocker of the GLP-1 (7-36) receptor. The pyrrolidide, phosphoramidon, and exendin 9-39 were each added to the cells four hours before the addition of the peptides. eNOS activity measurements were performed 48 hrs later. Measurement of eNOS activity. eNOS activity in cells was determined by first incubating cells in L-arginine-deficient, serum-free MEM media for 6 hours. […] The eluate was collected in glass scintillation vials for [^3H]L-citrulline quantitation by liquid scintillation spectroscopy.

For series [5], the system named is rat hepatocytes. Kind of series: Gluconeogenesis (glucose production) in isolated rat liver cells. The series is classed as cell-based. Conditions: liver cells of non-diabetic control strain rats, 1000 pM insulin without GLP-1(9-36), 24 hours. Here is the method:
Liver cells were isolated from non-diabetic control strain rats and from SDF rats. Single-cell suspensions of hepatocytes were obtained from perfusions using the procedure of Berry and Friend (1969) and the perfusion mixture of […] et al. (1979). The cells were plated on tissue culture plastic for 6 hours at a density of 2×10^5 cells per well in a 24-well culture plate that was pre-coated with rat-tail collagen I. During plating, cells were cultured in RPMI 1640 medium supplemented with 10% FBS, penicillin/streptomycin, 10 μg/ml insulin and 10 μM dexamethasone. After allowing for adherence, the media was changed to RPMI with 5 mM glucose, 0.4% FCS, and no insulin or dexamethasone. The cells were allowed to equilibrate overnight in this low-glucose media. The following morning this media was refreshed, insulin alone, or insulin and GLP-1(9-36) were added and treatment lasted another 24 hours. After stimulation, glucose production was measured by incubating the cells for 6 hours in glucose-free RPMI containing 5 mM each of alanine, valine, glycine, pyruvate and lactate. Glucose was subsequently measured with a Trinder assay (Sigma). Averages were obtained of 4 independent measurements.

For the molecule `CC[C@H](C)[C@H](NC(=O)[C@H](Cc1ccccc1)NC(=O)[C@H](CCC(=O)O)NC(=O)[C@H](CCCCN)NC(=O)[C@H](C)NC(=O)[C@H](C)NC(=O)[C@H](CCC(N)=O)NC(=O)CNC(=O)[C@H](CCC(=O)O)NC(=O)[C@H](CC(C)C)NC(=O)[C@H](Cc1ccc(O)cc1)NC(=O)[C@H](CO)NC(=O)[C@H](CO)NC(=O)[C@@H](NC(=O)[C@H](CC(=O)O)NC(=O)[C@H](CO)NC(=O)[C@@H](NC(=O)[C@H](Cc1ccccc1)NC(=O)[C@@H](NC(=O)CNC(=O)[C@@H](N)CCC(=O)O)[C@@H](C)O)[C@@H](C)O)C(C)C)C(=O)N[C@@H](C)C(=O)N[C@@H](Cc1c[nH]c2ccccc12)C(=O)N[C@@H](CC(C)C)C(=O)N[C@H](C(=O)N[C@@H](CCCCN)C(=O)NCC(=O)N[C@@H](CCCNC(=N)N)C(N)=O)C(C)C` [GLP-1 (9-36)], the “hyperglycemia-induced ROS formation in hepatocytes” value in series [1] is “inhibited”.
Regarding “GLP-1 (7-36) (HAEGTFTSDVSSYLEGQAAKEFIAWLVKGR-NH2; UniProt P01275 98-127, looked up, fragment)”, the “hyperglycemia-induced ROS production when GLP-1 degradation is blocked” value in series [2] (30 mM glucose, 10 nM peptide plus 10 μM pyrrolidide (DPP IV inhibitor) with or without 100 μM phosphoramidon (FIG. 1, bars 4 and 5)) was “no effect”. Also, the “hyperglycemia-induced ROS production” value in series [2] (30 mM glucose, peptide alone, ROS measured 24 hrs later (FIG. 1)) is on record as “completely prevents”. Further, the “high glucose-induced ROS in the presence of DPP-4 and neutral endopeptidase 24.11 inhibitors” value in series [3] (12 mM glucose, 2 hrs, with protease inhibitors) is listed as “no effect”. Also, in series [3] (GLP-1 (9-36 NH2) with 100× GLP-1 (7-36 NH2) and both DPPIV and NEP inhibitors), the “effect of 100-fold excess bioactive GLP-1 on ability of GLP-1 [9-36amide] to prevent nutrient-induced ROS” value was “did not affect”. Further, the “hyperglycemia-induced decrease in eNOS activity when GLP-1 (7-36) degradation is blocked” value in series [4] (30 mM glucose, 10 nM peptide plus 10 μM pyrrolidide and 100 μM phosphoramidon (FIG. 2, bar 4)) is “no effect”.
On to exendin 9-39 [e9-39], for which, in series [2] (30 mM glucose plus GLP-1 (9-36) plus 10 nM exendin 9-39), the “effect of GLP-1 receptor blockade on inhibition of hyperglycemia-induced ROS by GLP-1 (9-36)” value is “no effect”. Also, the “effect of GLP-1R antagonist on ability of GLP-1 degradation products to prevent glucose-induced ROS” value in series [3] (12 mM glucose, GLP-1 (9-36 NH2) plus receptor blocker) is “no effect”. The “effect of GLP-1 receptor blockade on GLP-1 (9-36) protection of eNOS activity” value in series [4] (30 mM glucose plus GLP-1 (9-36) plus 10 nM exendin 9-39 (FIG. 2, bar 6)) is listed as “no effect”.
For the molecule insulin, the “gluconeogenesis, % of control levels” value in series [5] is given as 46 % of control levels.
